Assay results published in the NIST ThermoML archive (doi:10.1016/j.jct.2010.06.011).
± gives the expanded uncertainty stated by the source.

What was measured:
[1] = Liquid, Vibrating tube method
[2] = xn = mol fraction of the nth substance listed; details: Liquid, Vibrating tube method, x2 = 0

SMILES: COC(=O)OC [dimethyl carbonate]
- mass density ([1]; 293.15 K, 100 kPa): 1069.8 ± 0.3 kg/m3
- mass density ([1]; 293.15 K, 5000 kPa): 1074.4 ± 0.3 kg/m3
- mass density ([1]; 293.15 K, 10000 kPa): 1078.6 ± 0.3 kg/m3
- mass density ([1]; 293.15 K, 20000 kPa): 1086.9 ± 0.3 kg/m3
- mass density ([1]; 293.15 K, 30000 kPa): 1094.5 ± 0.3 kg/m3
- mass density ([1]; 293.15 K, 40000 kPa): 1101.9 ± 0.4 kg/m3
- mass density ([1]; 298.15 K, 100 kPa): 1063.2 ± 0.3 kg/m3
- mass density ([1]; 298.15 K, 5000 kPa): 1068 ± 0.3 kg/m3
- mass density ([1]; 298.15 K, 10000 kPa): 1072.4 ± 0.3 kg/m3
- mass density ([1]; 298.15 K, 20000 kPa): 1080.8 ± 0.3 kg/m3
- mass density ([1]; 298.15 K, 30000 kPa): 1088.7 ± 0.3 kg/m3
- mass density ([1]; 298.15 K, 40000 kPa): 1096.2 ± 0.4 kg/m3
- mass density ([1]; 303.15 K, 100 kPa): 1056.5 ± 0.3 kg/m3
- mass density ([1]; 303.15 K, 5000 kPa): 1061.3 ± 0.3 kg/m3
- mass density ([1]; 303.15 K, 10000 kPa): 1066 ± 0.3 kg/m3
- mass density ([1]; 303.15 K, 20000 kPa): 1074.7 ± 0.3 kg/m3
- mass density ([1]; 303.15 K, 30000 kPa): 1082.9 ± 0.3 kg/m3
- mass density ([1]; 303.15 K, 40000 kPa): 1090.4 ± 0.4 kg/m3
- mass density ([1]; 308.15 K, 100 kPa): 1049.8 ± 0.3 kg/m3
- mass density ([1]; 308.15 K, 5000 kPa): 1054.6 ± 0.3 kg/m3
- mass density ([1]; 308.15 K, 10000 kPa): 1059.4 ± 0.3 kg/m3
- mass density ([1]; 308.15 K, 20000 kPa): 1068.5 ± 0.3 kg/m3
- mass density ([1]; 308.15 K, 30000 kPa): 1077 ± 0.3 kg/m3
- mass density ([1]; 308.15 K, 40000 kPa): 1084.8 ± 0.3 kg/m3
- mass density ([1]; 313.15 K, 100 kPa): 1043 ± 0.3 kg/m3
- mass density ([1]; 313.15 K, 5000 kPa): 1048.1 ± 0.3 kg/m3
- mass density ([1]; 313.15 K, 10000 kPa): 1053 ± 0.3 kg/m3
- mass density ([1]; 313.15 K, 20000 kPa): 1062.3 ± 0.3 kg/m3
- mass density ([1]; 313.15 K, 30000 kPa): 1071 ± 0.3 kg/m3
- mass density ([1]; 313.15 K, 40000 kPa): 1079 ± 0.3 kg/m3

SMILES: CCCCCC [hexane]
- mass density ([1]; 293.15 K, 100 kPa): 659.4 ± 0.3 kg/m3
- mass density ([1]; 293.15 K, 5000 kPa): 664.8 ± 0.3 kg/m3
- mass density ([1]; 293.15 K, 10000 kPa): 669.7 ± 0.4 kg/m3
- mass density ([1]; 293.15 K, 20000 kPa): 678.7 ± 0.5 kg/m3
- mass density ([1]; 293.15 K, 30000 kPa): 686.9 ± 0.6 kg/m3
- mass density ([1]; 293.15 K, 40000 kPa): 694.3 ± 0.7 kg/m3
- mass density ([1]; 298.15 K, 100 kPa): 654.9 ± 0.3 kg/m3
- mass density ([1]; 298.15 K, 5000 kPa): 660.4 ± 0.3 kg/m3
- mass density ([1]; 298.15 K, 10000 kPa): 665.5 ± 0.4 kg/m3
- mass density ([1]; 298.15 K, 20000 kPa): 674.8 ± 0.5 kg/m3
- mass density ([1]; 298.15 K, 30000 kPa): 683.2 ± 0.6 kg/m3
- mass density ([1]; 298.15 K, 40000 kPa): 690.7 ± 0.7 kg/m3
- mass density ([1]; 303.15 K, 100 kPa): 650.2 ± 0.3 kg/m3
- mass density ([1]; 303.15 K, 5000 kPa): 655.8 ± 0.3 kg/m3
- mass density ([1]; 303.15 K, 10000 kPa): 661.2 ± 0.4 kg/m3
- mass density ([1]; 303.15 K, 20000 kPa): 670.8 ± 0.5 kg/m3
- mass density ([1]; 303.15 K, 30000 kPa): 679.3 ± 0.6 kg/m3
- mass density ([1]; 303.15 K, 40000 kPa): 687 ± 0.7 kg/m3
- mass density ([1]; 308.15 K, 100 kPa): 645.7 ± 0.3 kg/m3
- mass density ([1]; 308.15 K, 5000 kPa): 651.5 ± 0.3 kg/m3
- mass density ([1]; 308.15 K, 10000 kPa): 657 ± 0.4 kg/m3
- mass density ([1]; 308.15 K, 20000 kPa): 666.9 ± 0.5 kg/m3
- mass density ([1]; 308.15 K, 30000 kPa): 675.8 ± 0.6 kg/m3
- mass density ([1]; 308.15 K, 40000 kPa): 683.6 ± 0.7 kg/m3
- mass density ([1]; 313.15 K, 100 kPa): 640.9 ± 0.3 kg/m3
- mass density ([1]; 313.15 K, 5000 kPa): 647 ± 0.3 kg/m3
- mass density ([1]; 313.15 K, 10000 kPa): 652.8 ± 0.4 kg/m3
- mass density ([1]; 313.15 K, 20000 kPa): 663.1 ± 0.5 kg/m3
- mass density ([1]; 313.15 K, 30000 kPa): 672.1 ± 0.6 kg/m3
- mass density ([1]; 313.15 K, 40000 kPa): 680.2 ± 0.7 kg/m3

SMILES: CCCCCC [hexane] + COC(=O)OC
- mass density ([2]; 293.15 K, 100 kPa): 659.4 ± 0.3 kg/m3
- mass density ([2]; 293.15 K, 5000 kPa): 664.8 ± 0.3 kg/m3
- mass density ([2]; 293.15 K, 10000 kPa): 669.7 ± 0.4 kg/m3
- mass density ([2]; 293.15 K, 20000 kPa): 678.7 ± 0.5 kg/m3
- mass density ([2]; 293.15 K, 30000 kPa): 686.9 ± 0.6 kg/m3
- mass density ([2]; 293.15 K, 40000 kPa): 694.3 ± 0.7 kg/m3
- mass density ([2]; 298.15 K, 100 kPa): 654.9 ± 0.3 kg/m3
- mass density ([2]; 298.15 K, 5000 kPa): 660.4 ± 0.3 kg/m3
- mass density ([2]; 298.15 K, 10000 kPa): 665.5 ± 0.4 kg/m3
- mass density ([2]; 298.15 K, 20000 kPa): 674.8 ± 0.5 kg/m3
- mass density ([2]; 298.15 K, 30000 kPa): 683.2 ± 0.6 kg/m3
- mass density ([2]; 298.15 K, 40000 kPa): 690.7 ± 0.7 kg/m3
- mass density ([2]; 303.15 K, 100 kPa): 650.2 ± 0.3 kg/m3
- mass density ([2]; 303.15 K, 5000 kPa): 655.8 ± 0.3 kg/m3
- mass density ([2]; 303.15 K, 10000 kPa): 661.2 ± 0.4 kg/m3
- mass density ([2]; 303.15 K, 20000 kPa): 670.8 ± 0.5 kg/m3
- mass density ([2]; 303.15 K, 30000 kPa): 679.3 ± 0.6 kg/m3
- mass density ([2]; 303.15 K, 40000 kPa): 687 ± 0.7 kg/m3
- mass density ([2]; 308.15 K, 100 kPa): 645.7 ± 0.3 kg/m3
- mass density ([2]; 308.15 K, 5000 kPa): 651.5 ± 0.3 kg/m3
- mass density ([2]; 308.15 K, 10000 kPa): 657 ± 0.4 kg/m3
- mass density ([2]; 308.15 K, 20000 kPa): 666.9 ± 0.5 kg/m3
- mass density ([2]; 308.15 K, 30000 kPa): 675.8 ± 0.6 kg/m3
- mass density ([2]; 308.15 K, 40000 kPa): 683.6 ± 0.7 kg/m3
- mass density ([2]; 313.15 K, 100 kPa): 640.9 ± 0.3 kg/m3
- mass density ([2]; 313.15 K, 5000 kPa): 647 ± 0.3 kg/m3
- mass density ([2]; 313.15 K, 10000 kPa): 652.8 ± 0.4 kg/m3
- mass density ([2]; 313.15 K, 20000 kPa): 663.1 ± 0.5 kg/m3
- mass density ([2]; 313.15 K, 30000 kPa): 672.1 ± 0.6 kg/m3
- mass density ([2]; 313.15 K, 40000 kPa): 680.2 ± 0.7 kg/m3
